Measurements: patent US6521635B1, “Inhibition of MXR transport by acridine derivatives” (priority 2000, dated 2003)

How the values were obtained:
Pgp = Pgp (Homo sapiens, UniProt P08183); conditions: reported in literature; cited from earlier work
Pgp (S1-B1-20 cells) = target: T1, Pgp (S1-B1-20 cells) (Homo sapiens, UniProt P08183); test: Calcein AM efflux assay (FACS); format: cell-based
T1 construct: The S1-B1-20 cells overexpress Pgp; endogenous in cells; host or cells: S1-B1-20 (Pgp-overexpressing subline of S1 colon carcinoma cells)
Protocol: The rhodamine and calcein efflux assays were performed as previously described with minor modifications (Lee et al. (1994) Mol. Pharmacol. 46: 627-638; Versantvoort et al. (1995) Int. J. Cancer 63: 855-862.) Suspensions of logarithmic phase cells were obtained from tissue culture flasks by trypsinization and transferred into round-bottom 96-well plates. […] After the efflux period, the cells were washed with DPBS and placed on ice. A FACSort flow cytometer (Becton Dickinson, San Jose, Calif.) with a 488-nm argon laser was used to analyze the samples. Rhodamine 123 or calcein fluorescence was collected after a 530 nm bandpass filter. A minimum of 10,000 events was collected per sample and the samples were gated on forward scatter versus side scatter to exclude clumps and debris; dead cells were excluded based on propidium iodide staining.
Calcein AM can be used to detect both Pgp and MRP-mediated efflux. Calcein permeates the cell in neutral form as an acetomethoxyester, calcein AM. Esterase activity cleaves the AM group leaving calcein as a fluorescent organic anion.

[1] = tested on: MXR-expressing S1-M1-80 cells; test: Confocal microscopy of mitoxantrone / rhodamine 123 accumulation; format: cell-based, human
Protocol: (§1) Cells were seeded in 35 mm glass-bottom microwell dishes (MatTek Corporation, Ashland, Mass.) at a density of 4000 cells/dish and incubated for 48 hours in phenol red-free IMEM supplemented with 10% fetal calf serum. […] The cells were analyzed using a Zeiss LSM 410 confocal laser scanning microscope equipped with a […] argon laser exciting mitoxantrone at 568 nm. Emitted light passed through a 590 nm long-pass filter.

[2] = tested on: P-glycoprotein overexpressing S1-B1-20 cells; test: as above; format: cell-based, human
Protocol: as §1

patients = conditions: cited from earlier work

T1 sequence (P08183 whole entry): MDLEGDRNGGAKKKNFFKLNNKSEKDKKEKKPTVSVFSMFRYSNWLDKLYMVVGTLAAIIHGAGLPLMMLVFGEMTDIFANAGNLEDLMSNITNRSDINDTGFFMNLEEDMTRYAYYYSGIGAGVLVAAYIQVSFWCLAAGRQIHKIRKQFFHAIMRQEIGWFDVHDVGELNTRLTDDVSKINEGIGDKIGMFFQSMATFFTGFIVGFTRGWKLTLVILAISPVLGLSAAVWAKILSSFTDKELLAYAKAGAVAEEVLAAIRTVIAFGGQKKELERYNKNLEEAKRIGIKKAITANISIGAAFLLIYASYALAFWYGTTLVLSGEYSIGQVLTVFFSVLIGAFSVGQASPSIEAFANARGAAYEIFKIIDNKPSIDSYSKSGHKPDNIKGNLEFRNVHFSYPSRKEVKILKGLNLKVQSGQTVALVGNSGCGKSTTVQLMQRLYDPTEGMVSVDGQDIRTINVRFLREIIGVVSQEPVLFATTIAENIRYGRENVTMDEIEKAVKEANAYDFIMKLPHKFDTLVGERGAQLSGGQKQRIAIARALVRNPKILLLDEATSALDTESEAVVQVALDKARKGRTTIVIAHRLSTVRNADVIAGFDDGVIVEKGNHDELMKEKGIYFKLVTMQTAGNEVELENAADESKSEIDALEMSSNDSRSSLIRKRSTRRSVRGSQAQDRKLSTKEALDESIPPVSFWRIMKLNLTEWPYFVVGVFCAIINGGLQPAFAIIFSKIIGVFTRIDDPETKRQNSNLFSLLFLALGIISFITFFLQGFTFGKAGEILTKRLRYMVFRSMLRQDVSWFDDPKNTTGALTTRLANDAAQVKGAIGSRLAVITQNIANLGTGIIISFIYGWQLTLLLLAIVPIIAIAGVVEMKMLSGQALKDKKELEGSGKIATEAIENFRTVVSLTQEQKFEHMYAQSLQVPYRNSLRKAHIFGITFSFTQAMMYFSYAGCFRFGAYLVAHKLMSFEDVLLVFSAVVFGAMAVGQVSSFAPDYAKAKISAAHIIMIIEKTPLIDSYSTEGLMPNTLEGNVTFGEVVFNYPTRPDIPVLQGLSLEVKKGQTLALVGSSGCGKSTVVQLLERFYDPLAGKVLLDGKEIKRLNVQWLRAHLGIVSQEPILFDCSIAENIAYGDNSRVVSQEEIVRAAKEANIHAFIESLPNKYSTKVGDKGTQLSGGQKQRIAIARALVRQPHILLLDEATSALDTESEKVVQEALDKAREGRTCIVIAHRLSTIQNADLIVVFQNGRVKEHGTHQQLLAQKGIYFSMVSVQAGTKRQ
Sequence of Pgp (P08183 whole entry): as above

SMILES: COc1cc2c(cc1OC)CN(CCc1ccc(NC(=O)c3cccc4c(=O)c5cccc(OC)c5[nH]c34)cc1)CC2 [GF120918]
- concentrations inhibiting Pgp-mediated efflux (Pgp): nanomolar concentrations
- block of calcein AM efflux (Pgp (S1-B1-20 cells); Pgp-expressing S1-B1-20 cells): able to block efflux
- type of inhibition of Pgp (Pgp (S1-B1-20 cells); calcein-AM efflux): non-competitive inhibitor
- effect on mitoxantrone fluorescence ([1]; 0.4 μM GF120918): less marked
- mitoxantrone level (accumulation, nuclear staining) ([1]; 10 μM and 50 μM GF120918 (data not shown)): full reversal had been achieved
- concentration for full reversal of the rhodamine accumulation defect ([1]; S1-M1-80 cells): 10 µM
- concentration at which the rhodamine 123 accumulation defect was reversed ([1]; S1-M1-80 cells (data not shown)): 2 µM
- rhodamine 123 accumulation ([2]; 0.4 μM GF120918): enhanced
- mitoxantrone fluorescence ([2]; 0.4 μM GF120918 during mitoxantrone incubation (data not shown)): level comparable to that of the parental line
- toxicity in phase I clinical trials (patients): little toxicity
